Measured values published in PubChem BioAssay (NCI).
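Cells were grown in 96-well plates and exposed to each compound for 48 hours at five concentrations; endpoints were interpolated linearly between bracketing concentrations, or set to the highest concentration if not reached. Here, GI50 denotes the concentration required for 50% inhibition of growth. At the TGI there is no net growth.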

Columns and labels:
Test in all cases: NCI-60 cell line screen, 48 h
786-0 renal = test system: 786-0 renal
HS 578T breast = test system: HS 578T breast
SNB-75 CNS = test system: SNB-75 CNS
OVCAR-5 ovarian = test system: OVCAR-5 ovarian
IGROV1 ovarian = test system: IGROV1 ovarian
NCI-H23 lung = test system: NCI-H23 lung
RXF 393 renal = test system: RXF 393 renal
OVCAR-8 ovarian = test system: OVCAR-8 ovarian
HT29 colon = test system: HT29 colon
MCF7 breast = test system: MCF7 breast
OVCAR-4 ovarian = test system: OVCAR-4 ovarian
DU-145 prostate = test system: DU-145 prostate
SK-MEL-2 melanoma = test system: SK-MEL-2 melanoma
A549 NSCLC = test system: A549 NSCLC
TK-10 renal = test system: TK-10 renal
MDA-MB-435 = test system: MDA-MB-435
SK-MEL-28 melanoma = test system: SK-MEL-28 melanoma
SF-268 CNS = test system: SF-268 CNS
UACC-257 melanoma = test system: UACC-257 melanoma
RPMI-8226 leukemia = test system: RPMI-8226 leukemia
SK-MEL-5 melanoma = test system: SK-MEL-5 melanoma
ACHN renal = test system: ACHN renal
MDA-MB-231 breast = test system: MDA-MB-231 breast
MOLT-4 leukemia = test system: MOLT-4 leukemia
HOP-62 NSCLC = test system: HOP-62 NSCLC
M14 melanoma = test system: M14 melanoma
HL-60(TB) leukemia = test system: HL-60(TB) leukemia
SW-620 colon = test system: SW-620 colon
HCT-15 colon = test system: HCT-15 colon
T-47D breast = test system: T-47D breast
HCC-2998 colon = test system: HCC-2998 colon
CAKI-1 renal = test system: CAKI-1 renal
SN12C renal = test system: SN12C renal
OVCAR-3 ovarian = test system: OVCAR-3 ovarian
LOX IMVI melanoma = test system: LOX IMVI melanoma
HOP-92 NSCLC = test system: HOP-92 NSCLC
MALME-3M melanoma = test system: MALME-3M melanoma
SK-OV-3 ovarian = test system: SK-OV-3 ovarian
NCI/ADR-RES ovarian = test system: NCI/ADR-RES ovarian
EKVX NSCLC = test system: EKVX NSCLC
K-562 leukemia = test system: K-562 leukemia
NCI-H460 lung = test system: NCI-H460 lung
BT-549 breast = test system: BT-549 breast
UACC-62 melanoma = test system: UACC-62 melanoma
PC-3 prostate = test system: PC-3 prostate
HCT-116 colon = test system: HCT-116 colon
NCI-H522 lung = test system: NCI-H522 lung
CCRF-CEM leukemia = test system: CCRF-CEM leukemia
KM12 colon = test system: KM12 colon
A498 renal = test system: A498 renal
SF-295 CNS = test system: SF-295 CNS
U251 CNS = test system: U251 CNS
SR leukemia = test system: SR leukemia
SNB-19 CNS = test system: SNB-19 CNS
SF-539 CNS = test system: SF-539 CNS
UO-31 renal = test system: UO-31 renal
COLO 205 colon = test system: COLO 205 colon

`CCCCC/C=C/C(=O)CCc1ccc(O)c(OC)c1` was tested, and the GI50 (786-0 renal) was 10.6 µM, the TGI (786-0 renal) was 23.6 µM and the GI50 (HS 578T breast) was 3.49 µM. For the same compound, the TGI (HS 578T breast) was 32.8 µM, the GI50 (SNB-75 CNS) was 5.63 µM and the TGI (SNB-75 CNS) was 20.5 µM. It also gave a GI50 (OVCAR-5 ovarian) of 16.2 µM, a TGI (OVCAR-5 ovarian) of 32.1 µM and a GI50 (IGROV1 ovarian) of 1740 nM. For the same compound, the TGI (IGROV1 ovarian) was 6.91 µM, the GI50 (NCI-H23 lung) was 4.62 µM and the TGI (NCI-H23 lung) was 17.9 µM. It also gave a GI50 (RXF 393 renal) of 5.4 µM, a TGI (RXF 393 renal) of 18.6 µM and a GI50 (OVCAR-8 ovarian) of 4.03 µM. For the same compound, the TGI (OVCAR-8 ovarian) was 16.7 µM, the GI50 (HT29 colon) was 2130 nM and the TGI (HT29 colon) was 4.94 µM. The GI50 (MCF7 breast) was 3.11 µM, the TGI (MCF7 breast) was 15.8 µM and the GI50 (OVCAR-4 ovarian) was 11 µM. It also gave a TGI (OVCAR-4 ovarian) of 23.1 µM, a GI50 (DU-145 prostate) of 4.03 µM and a TGI (DU-145 prostate) of 15.4 µM. The GI50 (SK-MEL-2 melanoma) was 14.8 µM, the TGI (SK-MEL-2 melanoma) was 28.8 µM and the GI50 (A549 NSCLC) was 6.25 µM. The TGI (A549 NSCLC) was 20.8 µM, the GI50 (TK-10 renal) was 11.6 µM and the TGI (TK-10 renal) was 24.7 µM. The GI50 (MDA-MB-435) was 4.04 µM, the TGI (MDA-MB-435) was 19 µM and the GI50 (SK-MEL-28 melanoma) was 15 µM. For the same compound, the TGI (SK-MEL-28 melanoma) was 28.7 µM, the GI50 (SF-268 CNS) was 10.9 µM and the TGI (SF-268 CNS) was 25.5 µM. The GI50 (UACC-257 melanoma) was 9.67 µM, the TGI (UACC-257 melanoma) was 22.3 µM and the GI50 (RPMI-8226 leukemia) was 1690 nM. It also gave a TGI (RPMI-8226 leukemia) of 4.34 µM, a GI50 (SK-MEL-5 melanoma) of 12.4 µM and a TGI (SK-MEL-5 melanoma) of 25.1 µM. It also gave a GI50 (ACHN renal) of 11.8 µM, a TGI (ACHN renal) of 24.1 µM and a GI50 (MDA-MB-231 breast) of 12.6 µM. It also gave a TGI (MDA-MB-231 breast) of 32.8 µM, a GI50 (MOLT-4 leukemia) of 10.1 µM and a TGI (MOLT-4 leukemia) of over 100 µM. For the same compound, the GI50 (HOP-62 NSCLC) was 9.77 µM, the TGI (HOP-62 NSCLC) was 22.1 µM and the GI50 (M14 melanoma) was 5.5 µM. The TGI (M14 melanoma) was 19.4 µM, the GI50 (HL-60(TB) leukemia) was 784 nM and the TGI (HL-60(TB) leukemia) was 43.9 µM. The GI50 (SW-620 colon) was 2860 nM, the TGI (SW-620 colon) was 10.3 µM and the GI50 (HCT-15 colon) was 10.8 µM. It also gave a TGI (HCT-15 colon) of 27.2 µM, a GI50 (T-47D breast) of 4.78 µM and a TGI (T-47D breast) of 18.9 µM. For the same compound, the GI50 (HCC-2998 colon) was 16.7 µM, the TGI (HCC-2998 colon) was 30.7 µM and the GI50 (CAKI-1 renal) was 9.38 µM. The TGI (CAKI-1 renal) was 27.5 µM, the GI50 (SN12C renal) was 7.99 µM and the TGI (SN12C renal) was 21.4 µM. It also gave a GI50 (OVCAR-3 ovarian) of 3.23 µM, a TGI (OVCAR-3 ovarian) of 12.9 µM and a GI50 (LOX IMVI melanoma) of 1600 nM. It also gave a TGI (LOX IMVI melanoma) of 3.29 µM, a GI50 (HOP-92 NSCLC) of 3.42 µM and a TGI (HOP-92 NSCLC) of 18.5 µM. For the same compound, the GI50 (MALME-3M melanoma) was 16.6 µM, the TGI (MALME-3M melanoma) was 35.3 µM and the GI50 (SK-OV-3 ovarian) was 13.8 µM. It also gave a TGI (SK-OV-3 ovarian) of 27.4 µM, a GI50 (NCI/ADR-RES ovarian) of 7.49 µM and a TGI (NCI/ADR-RES ovarian) of 37 µM. It also gave a GI50 (EKVX NSCLC) of 15.1 µM, a TGI (EKVX NSCLC) of 31.9 µM and a GI50 (K-562 leukemia) of 3.77 µM. It also gave a TGI (K-562 leukemia) of over 100 µM, a GI50 (NCI-H460 lung) of 15.2 µM and a TGI (NCI-H460 lung) of 33.6 µM. For the same compound, the GI50 (BT-549 breast) was 13.2 µM, the TGI (BT-549 breast) was 26.7 µM and the GI50 (UACC-62 melanoma) was 13.9 µM. The TGI (UACC-62 melanoma) was 27.7 µM, the GI50 (PC-3 prostate) was 3.75 µM and the TGI (PC-3 prostate) was 18 µM. The GI50 (HCT-116 colon) was 1710 nM, the TGI (HCT-116 colon) was 3.26 µM and the GI50 (NCI-H522 lung) was 2000 nM. It also gave a TGI (NCI-H522 lung) of 13.6 µM, a GI50 (CCRF-CEM leukemia) of 198 nM and a TGI (CCRF-CEM leukemia) of 3.01 µM. For the same compound, the GI50 (KM12 colon) was 3.09 µM, the TGI (KM12 colon) was 11.7 µM and the GI50 (A498 renal) was 13.1 µM. For the same compound, the TGI (A498 renal) was 26.8 µM, the GI50 (SF-295 CNS) was 10.4 µM and the TGI (SF-295 CNS) was 31 µM. It also gave a GI50 (U251 CNS) of 4.65 µM, a TGI (U251 CNS) of 17.1 µM and a GI50 (SR leukemia) of 2890 nM. The TGI (SR leukemia) was over 100 µM, the GI50 (SNB-19 CNS) was 14 µM and the TGI (SNB-19 CNS) was 27.1 µM. The GI50 (SF-539 CNS) was 5.4 µM, the TGI (SF-539 CNS) was 20.6 µM and the GI50 (UO-31 renal) was 1280 nM. It also gave a TGI (UO-31 renal) of 13.6 µM, a GI50 (COLO 205 colon) of 11.2 µM and a TGI (COLO 205 colon) of 24.1 µM.
